The source of these data is article PMC6197744, “Triazolo[4,5-d]pyrimidines as Validated General Control Nonderepressible 2 (GCN2) Protein Kinase Inhibitors Reduce Growth of Leukemia Cells” (Computational and Structural Biotechnology Journal, 2018).

Molecules are shown by their SMILES.

For one test, the target named is T1, human GCN2 (Homo sapiens, UniProt Q9P2K8).
T1 construct: purchased Reaction Biology Corporation (Malvern, PA)
Description: radiometric HotSpot kinase assay. The class given is biochemical. Conditions: ATP at the ATP Km of GCN2; means of two independent experiments. The method, then: Compounds 1–9 were screened in a radiometric […] kinase assay against human GCN2 and other kinases involved in the UPR and ISR pathways (Table 1). […] The most soluble of the potent tool compounds (1 and 2) were selected for in vitro cell-based assays where the phosphorylation of eIF2α (p-eIF2α) was used as a readout for GCN2 inhibition.
In vitro compound profiling for recombinant GCN2, PERK, HRI, PKR, or IRE1 kinases were performed at Reaction Biology Corporation (Malvern, PA) using the HotSpot kinase assay. Briefly, all compounds provided for testing were dissolved in 10 mM DMSO stock solutions. Serial dilutions were conducted by epMotion 5070 in DMSO. Specific kinase/substrate mixtures and required cofactors were prepared in reaction buffer (20 mM Hepes (pH 7.5), 10 mM MgCl2, 1 mM EGTA, 0.02% Brij35, 0.02 mg/ml BSA, 0.1 mM Na3VO4, 2 mM DTT, 1% DMSO). Compounds were added to the kinase reaction mixture by Acoustic technology (Echo550; nanoliter range) and incubated for 20 min at room temperature. The kinase reaction was initiated by adding ^33P ATP to a final concentration of 10 μM for single point kinase activity reading or to the ATP Km of GCN2 for IC50 readings. The reaction was incubated or 2 h at room temperature and kinase activity was detected by filter-binding method. IC50 values and curves were generated with GraphPad Prism 7 (GraphPad software).

A further test has as its target T2, MUSK (Homo sapiens, UniProt O15146).
T2 construct: purchased Luceome Biotechnologies
Briefly: Broad kinase panel screen (split-luciferase). The test is classed as binding. As for the experimental part:
(§1) Compound 2 was screened against a standard panel of 50 protein kinases by Luceome Biotechnologies (Tucson, AZ). In brief, Compound 2 was dissolved and diluted in DMSO to a concentration of 12.5 μM from a 10 mM stock solution. As a control, compound 2 was evaluated for false positive against split-luciferase. For kinase assays, each C-terminal half of firefly luciferase linked kinase (Cfluc-Kinase) was translated along with the coiled coil Fos attached to the N-terminal fragment (Nfluc) (Fos-Nfluc) using rabbit reticulocyte lysate at 30 °C for 90 min. 24 µL aliquot of this lysate containing 1 µL of either DMSO or Compound 2 (at a final concentration 0.5 μM) was incubated for 30 minutes at room temperature followed by 1 hour incubation in the presence of a kinase specific probe. Finally, 80 µL of luciferin assay reagent was added and luminescence was immediately measured on a luminometer. Compound 2 was screened in duplicate against each kinase.
(§2) The % Inhibition and % Activity Remaining was calculated using the following equations: […]

Another test deals with T3, EPHB2 (Homo sapiens, UniProt P29323).
T3 construct: purchased Luceome Biotechnologies
Description: Broad kinase panel screen (split-luciferase). The class given is binding. The settings on record: EPHB2, 0.5 uM. The method, then:
as §1, §2

A further test has as its target T4, MAPK14/p38a (Homo sapiens, UniProt Q16539).
T4 construct: purchased Luceome Biotechnologies
Briefly: Broad kinase panel screen (split-luciferase). The class given is binding. The method, then: as §1, §2

The target in a further test is T5, CAMK2D (Homo sapiens, UniProt Q13557).
T5 construct: purchased Luceome Biotechnologies
Description: Broad kinase panel screen (split-luciferase). The test is classed as binding. The method, then:
as §1, §2

T2 sequence (O15146 24-869): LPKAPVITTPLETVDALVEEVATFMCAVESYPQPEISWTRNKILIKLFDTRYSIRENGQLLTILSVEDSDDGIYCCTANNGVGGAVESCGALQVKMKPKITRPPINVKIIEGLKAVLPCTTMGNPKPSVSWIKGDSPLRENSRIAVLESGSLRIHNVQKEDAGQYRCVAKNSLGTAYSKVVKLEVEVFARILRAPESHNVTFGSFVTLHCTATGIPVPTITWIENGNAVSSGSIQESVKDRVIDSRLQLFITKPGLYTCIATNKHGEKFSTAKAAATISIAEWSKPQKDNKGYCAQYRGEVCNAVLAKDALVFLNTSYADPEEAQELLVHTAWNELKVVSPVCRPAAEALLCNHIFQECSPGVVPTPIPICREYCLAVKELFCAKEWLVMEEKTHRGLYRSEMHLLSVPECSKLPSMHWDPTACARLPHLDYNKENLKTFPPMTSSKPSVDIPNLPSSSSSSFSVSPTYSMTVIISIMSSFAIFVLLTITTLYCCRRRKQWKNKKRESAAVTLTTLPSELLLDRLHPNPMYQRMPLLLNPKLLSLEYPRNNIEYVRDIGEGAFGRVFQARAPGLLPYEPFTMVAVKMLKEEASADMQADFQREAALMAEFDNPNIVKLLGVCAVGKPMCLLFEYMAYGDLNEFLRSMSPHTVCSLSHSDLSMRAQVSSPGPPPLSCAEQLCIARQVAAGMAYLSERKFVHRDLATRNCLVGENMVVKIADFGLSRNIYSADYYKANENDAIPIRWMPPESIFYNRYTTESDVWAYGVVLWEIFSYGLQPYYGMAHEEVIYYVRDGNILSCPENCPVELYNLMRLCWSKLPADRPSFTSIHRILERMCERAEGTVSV
T1 sequence (Q9P2K8 whole entry): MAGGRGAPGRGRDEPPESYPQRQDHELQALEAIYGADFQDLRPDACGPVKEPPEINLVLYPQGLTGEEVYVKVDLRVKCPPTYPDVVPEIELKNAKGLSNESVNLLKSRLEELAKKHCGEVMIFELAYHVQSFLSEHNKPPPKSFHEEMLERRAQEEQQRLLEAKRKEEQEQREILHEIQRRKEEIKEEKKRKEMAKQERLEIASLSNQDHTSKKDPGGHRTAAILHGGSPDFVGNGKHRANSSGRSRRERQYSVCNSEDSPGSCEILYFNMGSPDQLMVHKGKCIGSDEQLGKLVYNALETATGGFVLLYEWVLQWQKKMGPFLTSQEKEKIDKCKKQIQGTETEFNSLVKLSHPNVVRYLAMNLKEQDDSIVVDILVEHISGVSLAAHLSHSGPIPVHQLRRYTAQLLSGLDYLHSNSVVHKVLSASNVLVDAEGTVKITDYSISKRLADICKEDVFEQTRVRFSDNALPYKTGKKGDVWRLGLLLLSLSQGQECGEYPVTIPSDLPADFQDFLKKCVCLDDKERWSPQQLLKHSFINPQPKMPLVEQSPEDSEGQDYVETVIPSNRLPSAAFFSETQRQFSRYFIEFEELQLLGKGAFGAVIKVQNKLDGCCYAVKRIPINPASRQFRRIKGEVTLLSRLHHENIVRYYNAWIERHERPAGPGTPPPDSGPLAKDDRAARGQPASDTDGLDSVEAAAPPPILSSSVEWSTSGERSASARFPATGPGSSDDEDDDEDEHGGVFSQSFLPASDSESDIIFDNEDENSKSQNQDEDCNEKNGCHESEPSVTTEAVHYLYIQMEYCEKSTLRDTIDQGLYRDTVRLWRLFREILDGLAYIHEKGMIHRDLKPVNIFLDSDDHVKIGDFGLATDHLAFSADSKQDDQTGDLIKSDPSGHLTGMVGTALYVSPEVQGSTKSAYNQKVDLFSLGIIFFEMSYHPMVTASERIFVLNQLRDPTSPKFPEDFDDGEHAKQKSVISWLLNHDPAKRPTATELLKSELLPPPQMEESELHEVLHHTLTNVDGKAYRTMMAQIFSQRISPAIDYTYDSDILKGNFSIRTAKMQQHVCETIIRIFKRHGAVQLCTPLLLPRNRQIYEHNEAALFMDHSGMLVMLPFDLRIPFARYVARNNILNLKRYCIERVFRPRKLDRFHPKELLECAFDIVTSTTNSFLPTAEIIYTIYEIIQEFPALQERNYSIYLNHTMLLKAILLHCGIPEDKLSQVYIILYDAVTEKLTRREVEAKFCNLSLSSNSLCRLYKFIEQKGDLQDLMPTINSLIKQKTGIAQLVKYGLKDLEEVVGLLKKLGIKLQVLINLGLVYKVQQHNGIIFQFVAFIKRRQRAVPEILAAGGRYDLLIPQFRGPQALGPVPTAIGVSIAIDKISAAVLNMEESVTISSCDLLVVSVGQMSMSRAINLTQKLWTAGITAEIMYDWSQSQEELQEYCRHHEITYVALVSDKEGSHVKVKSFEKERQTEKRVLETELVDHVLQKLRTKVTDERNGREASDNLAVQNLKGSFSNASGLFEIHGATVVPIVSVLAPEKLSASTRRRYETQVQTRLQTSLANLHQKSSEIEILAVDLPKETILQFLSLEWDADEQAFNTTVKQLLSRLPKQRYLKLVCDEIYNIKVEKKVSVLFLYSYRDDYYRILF
T3 sequence (P29323 19-1055): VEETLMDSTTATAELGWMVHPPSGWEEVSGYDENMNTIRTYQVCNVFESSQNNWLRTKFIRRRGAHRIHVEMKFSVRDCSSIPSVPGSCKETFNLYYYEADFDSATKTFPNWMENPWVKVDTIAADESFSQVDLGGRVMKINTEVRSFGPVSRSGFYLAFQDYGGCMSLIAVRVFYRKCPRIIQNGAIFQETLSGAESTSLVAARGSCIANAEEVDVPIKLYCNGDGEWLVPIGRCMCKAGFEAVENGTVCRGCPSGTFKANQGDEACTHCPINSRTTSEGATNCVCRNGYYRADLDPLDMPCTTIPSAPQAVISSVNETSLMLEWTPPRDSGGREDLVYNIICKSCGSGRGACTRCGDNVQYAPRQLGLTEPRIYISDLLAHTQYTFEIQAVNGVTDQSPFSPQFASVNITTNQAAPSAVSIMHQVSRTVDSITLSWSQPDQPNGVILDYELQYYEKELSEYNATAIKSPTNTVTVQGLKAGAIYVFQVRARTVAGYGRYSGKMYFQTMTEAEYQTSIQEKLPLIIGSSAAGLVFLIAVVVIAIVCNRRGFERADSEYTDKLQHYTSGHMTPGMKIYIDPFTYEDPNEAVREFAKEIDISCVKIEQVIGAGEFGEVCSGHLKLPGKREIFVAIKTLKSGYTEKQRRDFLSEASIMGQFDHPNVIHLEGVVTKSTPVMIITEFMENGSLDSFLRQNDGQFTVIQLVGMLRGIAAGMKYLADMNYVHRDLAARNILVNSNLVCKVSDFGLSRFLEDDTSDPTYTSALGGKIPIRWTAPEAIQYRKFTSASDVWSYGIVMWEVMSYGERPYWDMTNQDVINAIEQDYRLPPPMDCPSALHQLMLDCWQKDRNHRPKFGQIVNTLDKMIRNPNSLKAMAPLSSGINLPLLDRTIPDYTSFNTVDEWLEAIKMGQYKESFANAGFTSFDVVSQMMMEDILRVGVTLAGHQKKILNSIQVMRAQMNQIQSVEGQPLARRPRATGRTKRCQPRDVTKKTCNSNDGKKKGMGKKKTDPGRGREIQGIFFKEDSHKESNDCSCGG
T5 sequence (Q13557 whole entry): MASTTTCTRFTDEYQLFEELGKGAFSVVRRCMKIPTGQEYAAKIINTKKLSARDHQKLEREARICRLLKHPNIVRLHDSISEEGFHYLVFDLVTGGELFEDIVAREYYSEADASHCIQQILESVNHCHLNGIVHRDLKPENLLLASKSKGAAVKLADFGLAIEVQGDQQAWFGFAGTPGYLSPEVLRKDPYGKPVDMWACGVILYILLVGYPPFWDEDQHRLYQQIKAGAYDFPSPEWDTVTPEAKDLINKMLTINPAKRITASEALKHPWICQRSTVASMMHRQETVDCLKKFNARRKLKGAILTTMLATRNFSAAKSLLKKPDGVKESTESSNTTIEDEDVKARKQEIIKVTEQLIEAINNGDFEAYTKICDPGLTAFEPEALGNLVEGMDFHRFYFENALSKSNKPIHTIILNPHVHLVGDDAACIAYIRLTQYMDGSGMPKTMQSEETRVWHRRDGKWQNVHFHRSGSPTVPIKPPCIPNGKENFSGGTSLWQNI
T4 sequence (Q16539 whole entry): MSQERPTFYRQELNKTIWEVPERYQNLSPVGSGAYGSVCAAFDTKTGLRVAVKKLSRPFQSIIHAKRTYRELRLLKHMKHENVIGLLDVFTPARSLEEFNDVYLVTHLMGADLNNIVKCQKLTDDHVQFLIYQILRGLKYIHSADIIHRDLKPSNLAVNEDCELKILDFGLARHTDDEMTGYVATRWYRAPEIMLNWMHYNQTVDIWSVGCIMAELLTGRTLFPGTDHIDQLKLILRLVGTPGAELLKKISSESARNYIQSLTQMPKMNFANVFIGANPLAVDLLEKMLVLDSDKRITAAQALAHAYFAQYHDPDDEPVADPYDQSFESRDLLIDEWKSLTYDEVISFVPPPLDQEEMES

For orientation: IC50 means the concentration that gives 50% inhibition. The term remaining activity denotes the signal under treatment as a percentage of the control signal. Lower therefore signals little activity left. For `CCOc1ccc(-n2nnc3cnc(Nc4cnn(CC)c4)nc32)cc1` [Compound 2, 3-(4-Ethoxyphenyl)-N-(1-ethyl-1H-pyrazol-4-yl)-3H-[1,2,3]triazolo[4,5-d]pyrimidin-5-amine], the IC50 against human GCN2 is 18.6 nM. Further, the remaining activity at 0.5 µM on MUSK was 100%; on EPHB2, 97.7%; on MAPK14/p38a, 100%; on CAMK2D, 89.9%.
